One experiment addresses human Factor XIa (Homo sapiens (Human), UniProt P03951). Briefly: Factor XIa Assay (fluorogenic substrate GPR-AFC). The experiment is classed as biochemical. The following applies: Factor XIa (FXIa).
In another experiment the target is Human plasma kallikrein (Homo sapiens (Human), UniProt P03952). Briefly: Kallikrein Assay (fluorogenic substrate Acetyl-K-P-R-AFC). The experiment is classed as biochemical. The note with it: Plasma Kallikrein (PKal). The essentials: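 Ki is derived from IC50 with the Cheng-Prusoff equation, and IC50 from the inflection point of a four-parameter logistic curve. The rate of AFC release is read with 0.5 nM purified enzyme and […] substrate at room temperature or 37 °C.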
Sequence of Human plasma kallikrein (P03952 391-638): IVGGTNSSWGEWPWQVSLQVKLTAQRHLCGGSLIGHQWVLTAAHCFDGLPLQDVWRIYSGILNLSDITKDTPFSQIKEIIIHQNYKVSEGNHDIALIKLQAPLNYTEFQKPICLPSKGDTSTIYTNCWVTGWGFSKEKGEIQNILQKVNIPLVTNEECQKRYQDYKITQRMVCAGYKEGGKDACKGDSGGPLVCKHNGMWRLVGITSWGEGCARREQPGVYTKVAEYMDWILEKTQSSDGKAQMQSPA
Sequence of Human plasma kallikrein (P03952 20-390 partner): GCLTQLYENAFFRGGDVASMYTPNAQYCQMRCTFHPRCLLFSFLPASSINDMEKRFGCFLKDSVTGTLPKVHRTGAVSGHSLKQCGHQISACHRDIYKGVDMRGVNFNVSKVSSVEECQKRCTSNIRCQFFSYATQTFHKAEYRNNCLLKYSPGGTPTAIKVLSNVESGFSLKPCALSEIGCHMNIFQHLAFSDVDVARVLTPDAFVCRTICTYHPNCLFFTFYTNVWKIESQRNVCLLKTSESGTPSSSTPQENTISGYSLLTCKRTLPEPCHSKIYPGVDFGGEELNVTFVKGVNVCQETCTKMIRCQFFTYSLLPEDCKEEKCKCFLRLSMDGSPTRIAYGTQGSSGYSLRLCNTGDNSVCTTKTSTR

Sequence of human Factor XIa (P03951 388-625 limits assumed): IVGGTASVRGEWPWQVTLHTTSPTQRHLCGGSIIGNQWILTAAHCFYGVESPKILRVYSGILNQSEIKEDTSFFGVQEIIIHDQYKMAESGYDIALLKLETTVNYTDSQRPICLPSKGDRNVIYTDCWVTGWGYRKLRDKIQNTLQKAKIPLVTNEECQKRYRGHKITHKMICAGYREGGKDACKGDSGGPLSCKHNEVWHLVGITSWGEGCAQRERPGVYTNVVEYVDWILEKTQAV
Sequence of human Factor XIa (P03951 19-387 partner limits assumed): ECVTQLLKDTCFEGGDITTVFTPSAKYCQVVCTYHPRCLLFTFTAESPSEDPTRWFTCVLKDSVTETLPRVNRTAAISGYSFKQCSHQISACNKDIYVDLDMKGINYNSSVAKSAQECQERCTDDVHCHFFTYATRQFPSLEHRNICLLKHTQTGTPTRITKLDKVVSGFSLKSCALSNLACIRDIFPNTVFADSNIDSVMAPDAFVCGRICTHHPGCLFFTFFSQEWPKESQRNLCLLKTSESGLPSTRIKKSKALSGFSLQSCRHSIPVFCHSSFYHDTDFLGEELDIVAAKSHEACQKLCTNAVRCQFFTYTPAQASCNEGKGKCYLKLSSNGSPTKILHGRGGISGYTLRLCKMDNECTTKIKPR

For the molecule `Cc1ccc(Cl)c(F)c1-c1cnc(C)c(C(=O)Nc2cnn(Cc3nnc(N4C[C@H]5C[C@H]5C4=O)c(C)c3C)c2)n1` [Example 112, 6-(3 -Chloro-2-fluoro-6-methylphenyl)-N-(1-((4,5-dimethyl-6-((1R,5S)-2-oxo-3-azabicyclo[3.1.0]hexan-3-yl)pyridazin-3-yl)methyl)-1H-pyrazol-4-yl)-3-methylpyrazine-2-carboxamide], the IC50 – broadly, the midpoint of a concentration-inhibition curve – against human Factor XIa amounted to 1200 nM; against Human plasma kallikrein it was 4.8 nM.

As to `Cc1cc(C(C)n2cc(NC(=O)c3cc(-c4c(C(F)F)ccc(Cl)c4F)c[n+]([O-])c3)cn2)cnc1N1C[C@H]2C[C@H]2C1=O` (single isomer, unassigned) [Example 106, 5-(3-Chloro-6-(difluoromethyl)-2-fluorophenyl)-N-(1-((S or R)-1-(5-methyl-6-((1R,5S)-2-oxo-3-azabicyclo[3.1.0]hexan-3-yl)pyridin-3-yl)ethyl)-1H-pyrazol-4-yl)-1-(l1-oxidanyl)-114-pyridine-3-carboxamide], the results for the IC50 at human Factor XIa and against Human plasma kallikrein were 103 nM and 1.4 nM, respectively.

In the case of `Cc1c(N2C[C@H]3C[C@H]3C2=O)cnc(C(C)n2cc(NC(=O)c3cncc(-c4c(C(F)F)ccc(Cl)c4F)n3)cn2)c1N` (single isomer, unassigned) [Example 117, N-(1-((S or R)-1-(3-Amino-4-methyl-5-((1R,SS)-2-oxo-3-azabicyclo[3.1.0]hexan-3-yl)pyridin-2-yl)ethyl)-1H-pyrazol-4-yl)-6-(3-chloro-6-(difluoromethyl)-2-fluorophenyl)pyrazine-2-carboxamide], the half-inhibitory concentration (IC50) on human Factor XIa is over 10000 nM; against Human plasma kallikrein it was 1.9 nM.

As for `Cc1ncc(-c2c(C(F)F)ccc(Cl)c2F)nc1C(=O)Nc1cnn(Cc2cnc(N3C[C@H]4C[C@H]4C3=O)c(C)n2)c1` [Example 46, 6-(3-Chloro-6-(difluoromethyl)-2-fluorophenyl)-3-methyl-N-(1-((6-methyl-5-((1R,5S)-2-oxo-3-azabicyclo[3.1.0]hexan-3-yl)pyrazin-2-yl)methyl)-1H-pyrazol-4-yl)pyrazine-2-carboxamide], the concentration for half-maximal inhibition (IC50) on human Factor XIa is 755 nM; against Human plasma kallikrein, 0.9 nM.

On to `Cc1ncc(-c2c(C(F)F)ccc(Cl)c2F)nc1C(=O)Nc1cnn(C(C)c2cnc(N3C[C@H]4C[C@H]4C3=O)c(F)c2)c1` (single isomer, unassigned) [Example 51, 6-(3-Chloro-6-(difluoromethyl)-2-fluorophenyl)-N-(1-((S or R)-1-(5-fluoro-6-((1R,SS)-2-oxo-3-azabicyclo[3.1.0]hexan-3-yl)pyridin-3-yl)ethyl)-1H-pyrazol-4-yl)-3-methylpyrazine-2-carboxamide], for which the half-inhibitory concentration (IC50) on human Factor XIa stood at 1380 nM; against Human plasma kallikrein, 2.4 nM.

As for `Cc1c(C(C)n2cc(NC(=O)c3cncc(-c4c(OC(F)F)ccc(Cl)c4F)n3)cn2)cnc(N2C[C@H]3C[C@H]3C2=O)c1C` (single isomer, unassigned) [Example 104, 6-(3-Chloro-6-(difluoromethoxy)-2-fluorophenyl)-N-(1-((S or R)-1-(4,5-dimethyl-6-((1R,5S)-2-oxo-3-azabicyclo[3.1.0]hexan-3-yl)pyridin-3-yl)ethyl)-1H-pyrazol-4-yl)pyrazine-2-carboxamide], the IC50 is 420 nM on human Factor XIa and 1.2 nM against Human plasma kallikrein.

Take `Cc1cc(C(C)n2cc(NC(=O)c3cncc(-c4c(OC(F)F)ccc(Cl)c4F)n3)cn2)nnc1N1C[C@H]2C[C@H]2C1=O` (single isomer, unassigned) [Example 115, 6-(3-Chloro-6-(difluoromethoxy)-2-fluorophenyl)-N-(1-((R or S)-1-(5-methyl-6-((1R,5S)-2-oxo-3-azabicyclo[3.1.0]hexan-3-yl)pyridazin-3-yl)ethyl)-1H-pyrazol-4-yl)pyrazine-2-carboxamide]: the IC50 against human Factor XIa is 468 nM; against Human plasma kallikrein it was 2.5 nM.

`CC(c1cnc(N2C[C@H]3C[C@H]3C2=O)c2c1OC(F)(F)O2)n1cc(NC(=O)c2cncc(-c3c(C(F)F)ccc(Cl)c3F)n2)cn1` (single isomer, unassigned) [Example 249, 6-(3-Chloro-6-(difluoromethyl)-2-fluorophenyl)-N-(1-((S or R)-1-(2,2-difluoro-4-((1R,5S)-2-oxo-3-azabicyclo[3.1.0]hexan-3-yl)-[1,3]dioxolo[4,5-c]pyridin-7-yl)ethyl)-1H-pyrazol-4-yl)pyrazine-2-carboxamide]: the IC50 against human Factor XIa is over 10000 nM; against Human plasma kallikrein it was 2.1 nM.

Take `Cc1cc(C(C)n2cc(NC(=O)c3nc(-c4c(C(F)F)ccc(Cl)c4F)cnc3C(C)O)cn2)cnc1N1C[C@H]2C[C@H]2C1=O` (single isomer, unassigned) [Example 210, 6-(3-Chloro-6-(difluoromethyl)-2-fluorophenyl)-3-((S or R)-1-hydroxyethyl)-N-(1-((S or R)-1-(5-methyl-6-((1R,5S)-2-oxo-3-azabicyclo[3.1.0]hexan-3-yl)pyridin-3-yl)ethyl)-1H-pyrazol-4-yl)pyrazine-2-carboxamide]: the half-inhibitory concentration (IC50) was 186 nM at human Factor XIa and 0.4 nM at Human plasma kallikrein.

Consider `Cc1cc(C(C)n2cc(NC(=O)c3nc(-c4c(OC(F)F)ccc(Cl)c4F)cnc3COC(C)(C)C)cn2)cnc1N1C[C@H]2C[C@H]2C1=O` (mixture of isomers) [Example 228, 3-(tert-Butoxymethyl)-6-(3-chloro-6-(difluoromethoxy)-2-fluorophenyl)-N-(1-((R and S)-1-(5-methyl-6-((1R,5S)-2-oxo-3-azabicyclo[3.1.0]hexan-3-yl)pyridin-3-yl)ethyl)-1H-pyrazol-4-yl)pyrazine-2-carboxamide], for which the IC50 at human Factor XIa was determined as 602 nM; against Human plasma kallikrein it was 1.6 nM.

Take `Cc1nc(N2C[C@H]3C[C@H]3C2=O)ncc1[C@H](CO)n1cc(NC(=O)c2cncc(-c3c(C(F)F)ccc(Cl)c3F)n2)cn1` [Example 160, 6-(3-Chloro-6-(difluoromethyl)-2-fluorophenyl)-N-(1-((R)-2-hydroxy-1-(4-methyl-2-((1R,5S)-2-oxo-3-azabicyclo[3.1.0]hexan-3-yl)pyrimidin-5-yl)ethyl)-1H-pyrazol-4-yl)pyrazine-2-carboxamide]: the IC50 was over 10000 nM against human Factor XIa and 249 nM against Human plasma kallikrein.

Regarding `Cc1ncc(-c2c(C(F)F)ccc(Cl)c2F)nc1C(=O)Nc1cnn(C(C)c2ccc(N3CC4CC4C3=O)nc2)c1` (single isomer, unassigned) [Example 76, 6-(3-Chloro-6-(difluoromethyl)-2-fluorophenyl)-3-methyl-N-(1-((S or R)-1-(6-((1S,5R or 1R,5S)-2-oxo-3-azabicyclo[3.1.0]hexan-3-yl)pyridin-3-yl)ethyl)-1H-pyrazol-4-yl)pyrazine-2-carboxamide], the IC50 is over 10000 nM at human Factor XIa and 43 nM against Human plasma kallikrein.

On to `Cc1cc(C(C)n2cc(NC(=O)c3nc(-c4c(C(F)F)ccc(Cl)c4F)cnc3C(C)O)cn2)nnc1N1C[C@H]2C[C@H]2C1=O` (single isomer, unassigned) [Example 230, 6-(3-Chloro-6-(difluoromethyl)-2-fluorophenyl)-3-((S or R)-1-hydroxyethyl)-N-(1-((S or R)-1-(5-methyl-6-((1R,5S)-2-oxo-3-azabicyclo[3.1.0]hexan-3-yl)pyridazin-3-yl)ethyl)-1H-pyrazol-4-yl)pyrazine-2-carboxamide], for which the half-maximal inhibitory concentration (IC50) stood at 1330 nM against human Factor XIa and 1.1 nM on Human plasma kallikrein.

As for `Cc1c(C(CO)n2cc(NC(=O)c3cncc(-c4c(C(F)F)ccc(Cl)c4F)n3)cn2)cnc(N2C[C@H]3C[C@H]3C2=O)c1C` (single isomer, unassigned) [Example 167, 6-(3-Chloro-6-(difluoromethyl)-2-fluorophenyl)-N-(1-([R or S)-1-(4,5-dimethyl-6-((1R,5S)-2-oxo-3-azabicyclo[3.1.0]hexan-3-yl)pyridin-3-yl)-2-hydroxyethyl)-1H-pyrazol-4-yl)pyrazine-2-carboxamide], the IC50 amounted to 3650 nM on human Factor XIa and 10.5 nM against Human plasma kallikrein.

`CCc1nc(C(C)n2cc(NC(=O)c3cncc(-c4c(C(F)F)ccc(Cl)c4F)n3)cn2)cnc1N1C[C@H]2C[C@H]2C1=O` (single isomer, unassigned) [Example 56, 6-(3-Chloro-6-(difluoromethyl)-2-fluorophenyl)-N-(1-((R or S)-1-(6-ethyl-5-((1R,5S)-2-oxo-3-azabicyclo[3.1.0]hexan-3-yl)pyrazin-2-yl)ethyl)-1H-pyrazol-4-yl)pyrazine-2-carboxamide]: the figures for the 50% inhibitory concentration (IC50) at human Factor XIa and against Human plasma kallikrein were over 10000 nM and 1.5 nM, respectively.

Turning to `Cc1ncc(-c2c(C(F)F)ccc(Cl)c2F)nc1C(=O)Nc1cnn(C(C)c2ncc(N3C[C@H]4C[C@H]4C3=O)c(C)c2N)c1` (single isomer, unassigned) [Example 118, N-(1-((R or S)-1-(3-Amino-4-methyl-5-((1R,5S)-2-oxo-3-azabicyclo[3.1.0]hexan-3-yl)pyridin-2-yl)ethyl)-1H-pyrazol-4-yl)-6-(3-chloro-6-(difluoromethyl)-2-fluorophenyl)-3-methylpyrazine-2-carboxamide], the 50% inhibitory concentration (IC50) at human Factor XIa was 7570 nM; at Human plasma kallikrein, 1 nM.

For `CC(c1ncc(N2C[C@H]3C[C@H]3C2=O)cn1)n1cc(NC(=O)c2cncc(-c3c(C(F)F)ccc(Cl)c3F)n2)cn1` (single isomer, unassigned) [Example 5, 6-(3-Chloro-6-(difluoromethyl)-2-fluorophenyl)-N-(1-((S or R)-1-(5-((1R,5S)-2-oxo-3-azabicyclo[3.1.0]hexan-3-yl)pyrimidin-2-yl)ethyl)-1H-pyrazol-4-yl)pyrazine-2-carboxamide], the figures for the IC50 against human Factor XIa and against Human plasma kallikrein were over 10000 nM and 17.2 nM, respectively.

`COCc1ncc(-c2c(C(F)F)ccc(Cl)c2F)nc1C(=O)Nc1cnn(C2(c3cnc(N4C[C@H]5C[C@H]5C4=O)c(C)n3)CC2)c1` [Example 221, 6-(3-Chloro-6-(difluoromethyl)-2-fluorophenyl)-3-(methoxymethyl)-N-(1-(1-(6-methyl-5-((1R,5S)-2-oxo-3-azabicyclo[3.1.0]hexan-3-yl)pyrazin-2-yl)cyclopropyl)-1H-pyrazol-4-yl)pyrazine-2-carboxamide]: the results for the IC50 against human Factor XIa and on Human plasma kallikrein were over 10000 nM and 14.9 nM, respectively.

The values are drawn from US20230286958A1, “PLASMA KALLIKREIN INHIBITORS” (Merck Sharp & Dohme LLC, priority 2020, published 2023).
